In patent US20200377496A1, “INDOLE AND BENZIMIDAZOLE DERIVATIVES AS DUAL 5-HT2A and 5-HT6 RECEPTOR ANTAGONISTS” (ADAMED PHARMA, S.A., priority 2018, published 2020):
Like-named read-outs stand apart in the source and are kept apart here.

Experiments:
human GPCR 5-HT6 = human GPCR 5-HT6 (Homo sapiens, UniProt P50406); experiment: Cellular aequorin-based functional assay, 5-HT6; type: cell-based; settings: for 5-HT6 AGO EC50 [nM]: agonist mode, CHO-K1 aequorin cells; for Kb: antagonist mode, reference agonist serotonin 40 nM (EC80), read-out: 5-HT6 ANT Kb
Chain of human GPCR 5-HT6 (P50406 whole entry): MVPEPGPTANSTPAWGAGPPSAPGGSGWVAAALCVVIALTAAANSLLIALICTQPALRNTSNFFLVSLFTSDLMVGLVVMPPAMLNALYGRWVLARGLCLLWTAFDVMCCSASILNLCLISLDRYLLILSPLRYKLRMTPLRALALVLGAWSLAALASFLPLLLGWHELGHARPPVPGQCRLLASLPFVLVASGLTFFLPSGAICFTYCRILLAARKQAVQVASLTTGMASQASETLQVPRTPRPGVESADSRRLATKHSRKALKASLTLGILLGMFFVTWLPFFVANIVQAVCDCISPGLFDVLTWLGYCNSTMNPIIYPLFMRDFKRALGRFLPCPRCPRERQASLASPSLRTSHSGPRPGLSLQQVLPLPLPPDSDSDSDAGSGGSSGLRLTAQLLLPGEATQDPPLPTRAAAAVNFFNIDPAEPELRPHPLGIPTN
Procedure: (§1) Preparation of Solutions of Test and Reference Compounds.
(§2) 1 mM stock solutions of the tested compounds were prepared in DMSO. Serial dilutions were prepared in 96-well microplate in assay buffers using automated pipetting system epMotion 5070 (Eppendorf). Two independent experiments in duplicates were performed and 6 to 10 concentrations were tested.
(§3) 5-HT2A and 5-HT6 Functional Activity Assays.
(§4) Cellular aequorin-based functional assays were performed with γ-irradiated recombinant CHO-K1 cells expressing mitochondrially-targeted Aequorin, human GPCR (5-HT2A or 5-HT6) and the promiscuous G protein α16 (PerkinElemer). Assays were performed according to the standard protocol provided by the manufacturer. After thawing, cells were transferred to assay buffer (DMEM/HAM's F12 with 0.1% protease-free BSA) and centrifuged. Cell pellet was resuspended in assay buffer and coelenterazine h was added at final concentrations of 5 μM. Cell suspension was incubated at 21° C., protected from light with constant agitation, for 4 hours and then diluted with assay buffer to a concentration of 250,000 cells/ml. After 1 hour incubation 50 yl cell suspension was dispensed using automatic injectors built in radiometric and luminescence plate counter MicroBeta2 LumiJET (PerkinElmer, USA) into white opaque 96-well microplate preloaded with tested compounds. Immediate light emission generated following calcium mobilization was recorded for 30-60 seconds. In antagonist mode, after 15-30 minutes incubation reference agonist was added to the above assay mix and light emission was recorded again. Final concentration of reference agonist was equal EC80: serotonin 40 nM for 5-HT6 receptor and α-methylserotonin 30 nM for 5-HT2A receptor. The assays were performed in the agonist mode (5-HT6 AGO and 5-HT2A AGO) as well as antagonist mode (5-HT6 ANT and 5-HT2A ANT).
(§5) IC50 and EC50 were determined by non-linear regression analysis using GraphPad Prism 6.0 software. The log IC50 was used to obtain the Kb by applying the Cheng-Prusoff approximation.

human GPCR 5-HT2A = human GPCR 5-HT2A (Homo sapiens, UniProt P28223); experiment: Cellular aequorin-based functional assay, 5-HT2A; type: cell-based; settings: for 5-HT2A AGO EC50 [nM]: agonist mode, CHO-K1 aequorin cells
Chain of human GPCR 5-HT2A (P28223 whole entry): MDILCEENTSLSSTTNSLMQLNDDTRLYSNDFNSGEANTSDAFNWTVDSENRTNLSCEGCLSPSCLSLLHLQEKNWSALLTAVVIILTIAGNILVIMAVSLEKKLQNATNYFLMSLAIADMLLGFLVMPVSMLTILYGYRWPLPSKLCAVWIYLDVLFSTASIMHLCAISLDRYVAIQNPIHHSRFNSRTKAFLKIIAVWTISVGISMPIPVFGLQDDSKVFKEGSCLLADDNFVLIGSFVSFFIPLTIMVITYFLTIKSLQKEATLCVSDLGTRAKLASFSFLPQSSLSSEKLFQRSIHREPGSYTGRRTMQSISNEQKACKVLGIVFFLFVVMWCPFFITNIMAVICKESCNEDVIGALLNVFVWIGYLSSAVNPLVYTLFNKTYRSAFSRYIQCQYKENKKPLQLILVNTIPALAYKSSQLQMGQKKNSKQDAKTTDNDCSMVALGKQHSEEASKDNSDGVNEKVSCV
Procedure: as §1, §2, §3, §4, §5

human 5-HT2A receptor = human 5-HT2A receptor (Homo sapiens, UniProt P28223); experiment: 5-HT2A receptor binding assay ([3H]-ketanserin radioligand)
Chain of human 5-HT2A receptor (P28223 whole entry): as above
Procedure: as §1
(§6) 1 mM stock solutions of tested compounds were prepared in DMSO. Serial dilutions of compounds were prepared in 96-well microplate in assay buffers using automated pipetting system epMotion 5070 (Eppendorf). Each compound was tested in 10 concentrations from 1.0E-6 to 1.0E-11 M (final concentration).
5-HT2A Receptor Binding Assay.
Radioligand binding was performed using membranes from CHO K1 cells stably transfected with the human 5-HT2A receptor (PerkinElmer). All assays were carried out in duplicates. 50 μl working solution of the tested compounds, 50 μl [3H]-ketanserin (final concentration 1 nM) and 150 μl diluted membranes (7 μg protein per well) prepared in assay buffer (50 mM Tris, pH 7.4, 4 mM CaCl2, 0.1% ascorbic acid) were transferred to polypropylene 96-well microplate using 96-wells pipetting station Rainin Liquidator (MettlerToledo). Mianserin (10 μM) was used to define nonspecific binding. Microplate was covered with a sealing tape, mixed and incubated for 60 minutes at 27° C. The reaction was terminated by rapid filtration through GF/B filter mate presoaked with 0.5% polyethyleneimine for 30 minutes. Ten rapid washes with 200 μl 50 mM Tris buffer (4° C., pH 7.4) were performed using automated harvester system Harvester-96 MACH III FM (Tomtec). The filter mates were dried at 37° C. in forced air fan incubator and then solid scintilator MeltiLex was melted on filter mates at 90° C. for 5 minutes. Radioactivity was counted in MicroBeta2 scintillation counter (PerkinElmer). Data were fitted to a one-site curve-fitting equation with Prism 6 (GraphPad Software) and Ki values were estimated from the Cheng-Prusoff equation.

5-HT6 receptors = 5-HT6 receptors (Homo sapiens, UniProt P50406); experiment: 5-HT6 receptor binding assay ([3H]-LSD radioligand); settings: membranes from CHO-K1 cells with human 5-HT6 receptor, [3H]-LSD 1 nM
Chain of 5-HT6 receptors (P50406 whole entry): as the sequence (P50406 whole entry) above
Procedure: as §1, §6
5-HT6 Receptor Binding Assay.
Radioligand binding was performed using membranes from CHO-K1 cells stably transfected with the human 5-HT6 receptor (PerkinElmer). All assays were carried out in duplicates. 50 μl working solution of the tested compounds, 50 μl [3H]-LSD (final concentration 1 nM) and 150 μl diluted membranes (8 μg protein per well) prepared in assay buffer (50 mM Tris, pH 7.4, 10 mM MgCl2, 0.1 mM EDTA) were transferred to polypropylene 96 well microplate using 96-wells pipetting station Rainin Liquidator (MettlerToledo). Methiothepin (10 μM) was used to define nonspecific binding. Microplate was covered with a sealing tape, mixed and incubated for 60 minutes at 37° C. The reaction was terminated by rapid filtration through GF/A filter mate presoaked with 0.5% polyethyleneimine for 30 minutes. Ten rapid washes with 200 μl 50 mM Tris buffer (4° C., pH 7.4) were performed using automated harvester system Harvester-96 MACH III FM (Tomtec). The filter mates were dried at 37° C. in forced air fan incubator and then solid scintilator MeltiLex was melted on filter mates at 90° C. for 5 minutes. Radioactivity was counted in MicroBeta2 scintillation counter (PerkinElmer). Data were fitted to a one-site curve-fitting equation with Prism 6 (GraphPad Software) and Ki values were estimated from the Cheng-Prusoff equation.

[1] = antagonist mode, reference agonist α-methylserotonin 30 nM (EC80), read-out: 5-HT2A ANT Kb
[2] = membranes from CHO K1 cells with human 5-HT2A receptor, [3H]-ketanserin 1 nM, read-out: 5-HT2A Ki

Row | SMILES | 5-HT6 AGO EC50 [nM] (human GPCR 5-HT6) | Kb (human GPCR 5-HT6) | 5-HT2A AGO EC50 [nM] (human GPCR 5-HT2A) | Kb (human GPCR 5-HT2A; [1]) | Ki (human 5-HT2A receptor; [2]) | Ki (5-HT6 receptors) | Kb (human GPCR 5-HT2A) | Ki (human 5-HT2A receptor)
1 | Fc1cc(Cn2c(C(F)(F)F)cc3c(N4CCNCC4)cccc32)ccc1Cl [Compound 16, 1-(4-chloro-3-fluorobenzyl)-4-(piperazin-1-yl)-2-(trifluoromethyl)-1H-indole] | N.C. | 4.4 nM | N.C. | 55 nM | 0.82 nM | 0.62 nM | – | –
2 | FC(F)(F)c1cc2c(N3CCNCC3)cccc2n1Cc1cccc(Cl)c1 [Compound 20, 1-(3-chloroobenzyl)-4-(piperazin-1-yl)-2-(trifluoromethyl)-1H-indole] | N.C. | 1.2 nM | N.C. | – | – | – | 53 nM | 2.2 nM
3 | FC(F)(F)c1cc2c(N3CCNCC3)cccc2n1Cc1cccs1 [Compound 30, 4-(piperazin-1-yl)-1-(thiophen-2-ylmethyl)-2-(trifluoromethyl)-1H-indole] | N.C. | 0.65 nM | N.C. | – | – | 0.071 nM | 5.5 nM | 0.33 nM
4 | Fc1cccc(Cn2c(C(F)(F)F)cc3c(N4CCNCC4)cccc32)c1 [Compound 19, 1-(3-fluorobenzyl)-4-(piperazin-1-yl)-2-(trifluoromethyl)-1H-indole] | N.C. | 0.14 nM | N.C. | – | – | 0.35 nM | 21 nM | 1.3 nM
5 | FC(F)(F)c1nc2c(N3CCNCC3)cccc2n1Cc1ccc(Cl)c(Cl)c1 [Compound 8, 1-(3,4-dichlorobenzyl)-4-(piperazin-1-yl)-2-(trifluoromethyl)-1H-benzo[d]imidazole] | – | – | – | – | 2.9 nM | 2 nM | – | –
6 | Cc1ccc(Cn2c(C(F)(F)F)cc3c(N4CCNCC4)cccc32)o1 [Compound 28, 1-[(5-methylfuran-2-yl)methyl]-4-(piperazin-1-yl)-2-(trifluoromethyl)-1H-indole] | N.C. | 0.25 nM | N.C. | – | – | 4 nM | 16 nM | 0.48 nM
7 | CN1CCN(c2cccc3c2cc(C(F)(F)F)n3Cc2cccc(F)c2)CC1 [Compound 24, 1-[(3-fluorophenyl)methyl]-4-(4-methylpiperazin-1-yl)-2-(trifluoromethyl)-1H-indole] | N.C. | 1.1 nM | N.C. | 28 nM | 0.73 nM | 0.092 nM | – | –
8 | Cc1ccc(Cn2c(C(F)(F)F)cc3c(N4CCNCC4)cccc32)s1 [Compound 29, 1-[(5-methylthiophen-2-yl)methyl]-4-(piperazin-1-yl)-2-(trifluoromethyl)-1H-indole] | N.C. | 0.051 nM | N.C. | – | – | 0.11 nM | 9.8 nM | 0.37 nM
9 | FC(F)(F)c1nc2c(N3CCNCC3)cccc2n1Cc1cccc(Cl)c1 [Compound 6, 1-(3-chlorobenzyl)-4-(piperazin-1-yl)-2-(trifluoromethyl)-1H-benzimidazole] | – | – | – | – | 3.8 nM | 1.7 nM | – | –
10 | CN1CCN(c2cccc3c2cc(C(F)(F)F)n3Cc2ccco2)CC1 [Compound 21, 1-(furan-2-ylmethyl)-4-(4-methylpiperazin-1-yl)-2-(trifluoromethyl)-1H-indole] | N.C. | 0.27 nM | N.C. | 4.3 nM | – | 0.18 nM | – | –
11 | CN1CCN(c2cccc3c2cc(C(F)(F)F)n3Cc2ccsc2)CC1 [Compound 32, 4-(4-methylpiperazin-1-yl)-1-(thiophen-3-ylmethyl)-2-(trifluoromethyl)-1H-indole] | N.C. | 0.37 nM | N.C. | 11 nM | 2.3 nM | 0.061 nM | – | –
12 | COc1cccc(Cn2c(C(F)(F)F)cc3c(N4CCNCC4)cccc32)c1 [Compound 23, 1-(3-methoxybenzyl)-4-(piperazin-1-yl)-2-(trifluoromethyl)-1H-indole] | N.C. | 0.26 nM | N.C. | 28 nM | – | – | – | –
13 | CN1CCN(c2cccc3c2cc(C(F)(F)F)n3Cc2cccc(Cl)c2)CC1 [Compound 27, 1-(3-chlorobenzyl)-4-(4-methylpiperazin-1-yl)-2-(trifluoromethyl)-1H-indole] | N.C. | 0.31 nM | N.C. | 56 nM | – | – | – | –
14 | CN1CCN(c2cccc3c2nc(C(F)(F)F)n3Cc2ccccc2)CC1 [Compound 2, 1-benzyl-4-(4-methylpiperazin-1-yl)-2-(trifluoromethyl)-1H-benzimidazole] | – | – | – | – | 3.1 nM | 2.2 nM | – | –
15 | CN1CCN(c2cccc3c2cc(C(F)(F)F)n3Cc2ccccc2)CC1 [Compound 26, 1-benzyl-4-(4-methylpiperazin-1-yl)-2-(trifluoromethyl)-1H-indole] | – | – | – | – | 0.91 nM | 0.087 nM | – | –
16 | CN1CCN(c2cccc3c2cc(C(F)(F)F)n3Cc2ccc(F)c(F)c2)CC1 [Compound 22, 1-(3,4-difluorobenzyl)-4-(4-methylpiperazin-1-yl)-2-(trifluoromethyl)-1H-indole] | N.C. | 4.8 nM | N.C. | 26 nM | 0.45 nM | – | – | –
17 | COc1cccc(Cn2c(C(F)(F)F)cc3c(N4CCN(C)CC4)cccc32)c1 [Compound 18, 1-(3-methoxybenzyl)-4-(4-methylpiperazin-1-yl)-2-(trifluoromethyl)-1H-indole] | – | – | – | – | 4.2 nM | 0.27 nM | – | –
